# “Also recorded” adds a separate entry of the source.
# Key:
# B16 tumor cells [1] = test: MTT cell proliferation assay; assay type: cell-based, murine; settings: B16 cells in vitro; inosine 10, 50, 200 μM; 0-96 h
# Method: MTT assays were used to determine the cell viability of B16 tumor cells treated with control vehicle; the concentration of inosine administered is indicated, where “Ino-10” means 10 μM Inosine; “Ino-50” means 50 μM Inosine and “Ino-200” means 200 μM Inosine.
# Cell proliferation ability was examined at 0, 24, 48, 72 h and 96 h using a Cell Proliferation Reagent Kit I (MTT; Sigma) according to the manufacturer's instruction. Cells were seeded in a 96-well plate in triplicate at a concentration of 2×10^3 cells/well. On the indicated day, the medium was removed and the MTT solution was added to the wells. Four hours later, DMSO was added and the cells were further incubated for 10 min with gentle shaking at 37° C. Finally, the optical density of each well was measured using a microplate reader at 550 nm.
# B16 tumor cells [2] = test: Cell apoptosis assay (Annexin V / 7-AAD flow cytometry); assay type: cell-based, murine; settings: B16 cells in vitro; inosine same concentrations as FIG. 2A; 48 h
# Method: Tumor cells were seeded in a 6-well plate and grown for 24 h. Cells were then treated with control (vehicle) or 1, 10, 50, 100 μM inosine. After 48 h of treatment, cells were harvested by trypsinization, resuspended at 10^6 cells/ml in 1× Annexin V Binding Buffer (BD Biosciences), and 100 μl (10^5 cells) were added to each FACS tube. Cells were stained with 7-AAD (5 μl/100 μl, BD Biosciences, to assess cell death), and APC-conjugated Annexin V (5 μl/100 μl, BD Biosciences, to assess apoptosis) for 30 min and analyzed by BD FACSCanto II. FACS data were acquired using FACSDiva (BD Biosciences) and analyzed using FlowJo software (Tree Star) and the percentage of APC^+ cells obtained.
# [3] = tested on: H2k1, H2d1, Stat1, Stat3, Irf1 mRNA in B16 cells; test: Reverse transcription quantitative PCR of antigen presentation-related and IFN signaling genes; assay type: cell-based, murine; settings: inosine at 500
# Method: Tumor cells cDNA was prepared using 1 μg RNA with the qScript cDNA Synthesis Kit (Bio-Rad). SYBR green-based qPCR was performed using murine primers to H2k1, H2d1, Stat1, Stat3, and Irf1. Relative copy number was determined by calculating the fold-change difference in the gene of interest relative to 18sRNA (ΔCt=Ct gene of interest−Ct 18sRNA) and reported as relative mRNA expression (ΔΔCt=2^−(ΔCt sample−ΔCt control)) or fold change. qPCR was performed on an Applied Biosystems 7300 machine.
# [4] = tested on: MHC-I (H2kb) on B16 cells; test: Flow cytometry of membrane MHC-I (H2kb) expression; assay type: cell-based, murine; settings: inosine at 500
# Method: B16 cells were stained for flow cytometry to determine the membrane MHC-I expression level.
# For MHC-I expression flow analysis on the tumor cell, one million cells per condition were stained with the PE anti-mouse H-2Kb antibody (Biolegend) diluted in PBS plus 2% FBS and kept for 30 min on ice. Matched isotype control Ab was performed as a control.
# [5] = tested on: CD4+ and CD8+ T cells in B16 tumors; test: Flow cytometry of tumor-infiltrating T lymphocytes in B16 tumors; assay type: in vivo, C57BL/6 mice; settings: n=5 tumors
# Method: Tumors from the indicated treatment group were mechanically minced for the isolation of infiltrating lymphocytes. Cells were counted and stained for flow cytometry to determine the percentage of CD4^+ and CD8^+ T lymphocytes in total CD45^+ immune cells.
# Results are shown as mean±SEM (* P<0.05; ** P<0.01) and statistics were calculated using the unpaired t-test with Welch's correction.
# Mouse tumor samples were minced with scissors before incubation with dissociation buffer (2 mg/ml collagenase type A, 0.02 mg/ml DNase in RPMI1640 containing 5% FBS, PenStrep) with agitation at 37° C. for 45 min. Tumor samples were homogenized by repeated pipetting and filtered through a 70-μm nylon filter (BD Biosciences) in RPMI supplemented with 10% FBS to generate single-cell suspensions. Cell suspensions were washed once with complete RPMI. After lysis of red blood cells, single-cell suspensions were blocked with anti-CD16/32 (Biolegend) for 20 min on ice and then incubated with appropriate antibodies for 30 min on ice: anti-CD45-APC-Cy7, CD3-FITC, CD8-PercP-Cy5.5, CD4-PE. Dead cells and doublets were excluded on the basis of forward and side scatter and Fixable Viability Dye eFluor 450 (eBioscience). Flow cytometry was performed on FACSCanto II (BD Biosciences), and data were analyzed using FlowJo (TreeStar).
# 4T1 tumors = test: 4T1 breast cancer tumor model in mice (tumor volume, weight); assay type: in vivo; settings: 4T1 tumor-bearing Balb/c mice; inosine 400 mg/kg/day oral day 4 to 21; anti-CTLA4 100 μg + anti-PD-1 200 μg i.p. days 7, 10, 13, 16
# Method: 4T1 cells were injected into the mammary fat pad of eight-week-old female Balb/c mice (2×10^5/mouse). […] Results are shown as mean±SEM. (*** indicates P<0.001).
# 4T1 cells were injected into the mammary fat pad of eight-week-old female Balb/c mice (2×10^5/mouse). […] Results are shown as mean±SEM. (** indicates P<0.01)
# [6] = background; cited from earlier work
# B16 tumors = test: B16 melanoma tumor model in mice (tumor volume, survival); settings: B16 tumor-bearing C57BL/6 mice; inosine 400 mg/kg/day oral from day 4; anti-CTLA4 100 μg + anti-PD-1 200 μg i.p. days 7, 10, 13, 16
# Method: B16 cells were injected subcutaneously into eight-week-old female C57BL/6 mice (2×10^5/mouse). Anti-CTLA4 antibody (100 μg per mouse) and anti-PD-1 antibody (200 μg per mouse) were injected i.p on days 7, 10, 13 and 16. 400 mg/kg body weight of inosine per day was orally administered to mice from day 4.
# (§1) All the cell lines were confirmed to be mycoplasma free. Cells were cultured using DMEM (Corning) with 10% fetal bovine serum (Corning) and 1% Pen/Strep (Life Technologies). Cells were incubated in an incubator maintained at 37° C. and 5% CO2. 75-80% of confluent cells were harvested for orthotopic injection.
# (§2) For the melanoma model, 2×10^5 B16 or B16-GM cells were harvested for orthotopic injection into the subcutaneous (s.c.) of C57BL/6J mice (6-8 weeks) using 0.25% Trypsin (Corning) and suspended in DPBS (Gibco).
# (§3) Treatments were given as single agents or in combination with the following regimen. Inosine (Sigma-Aldrich) was dissolved in sterilized water to yield a concentration of 40 mg/ml, and administered by oral gavage once a day at 400 mg/kg body weight. Treatment was initiated on day 4 and ended on day 21 post tumor implant. Control groups received vehicle (water) by oral gavage. […] Tumors were measured every third day with a caliper, and measurements were assessed manually by assessing the longest dimension (length) and the longest perpendicular dimension (width). […]
# B16-GM tumors = test: B16-GM metastatic melanoma tumor model in mice (tumor volume, weight, lung metastasis, survival)
# Method: B16-GM cells were injected subcutaneously into eight-week-old female C57BL/6 mice (2×10^5/mouse). Anti-CTLA4 antibody (100 μg per mouse) and anti-PD-1 antibody (200 μg per mouse) were injected i.p on days 7, 10, 13 and 16. 400 mg/kg of inosine per day was orally administered to mice from day 4 to day 21.
# as §1, §2, §3
smiles,measurement,setting,value
"OC[C@H]1O[C@@H](n2cnc3c(O)ncnc32)[C@H](O)[C@@H]1O [inosine, 9-[(2R,3R,4S,5R)-3,4-dihydroxy-5-(hydroxymethyl)oxolan-2-yl]-1H-purin-6-one]",proliferation / cell viability (MTT),B16 tumor cells [1],didn't inhibit tumor cell proliferation; also recorded: doesn't inhibit the proliferation
same,apoptotic tumor cells,B16 tumor cells [2],didn't inhibit tumor cell proliferation and promote apoptosis; also recorded: doesn't induce the apoptosis
same,"relative mRNA expression of antigen presentation-related genes (H2k1, H2d1) and IFN signaling genes (Stat1, Stat3, Irf1)",[3],stimulates interferon signaling and antigen presentation-related genes; also recorded: increases the expression of antigen presentation-related genes and IFN signaling genes
same,membrane MHC-I (H2kb) expression,[4],enhances the expression of MHC-I; also recorded: increases the membrane protein level of MHC-I
same,CD8+ T cell population in tumors,[5],increased the cytotoxic CD8^+ T infiltration
same,tumor volume / tumor growth,4T1 tumors,does not significantly affect tumor growth
same,half-life,[6],approximately 15 h
same,tumor volume / tumor growth,B16 tumors,inhibited tumor growth in vivo; also recorded: enhanced the antitumor efficacy of ICB
same,tumor volume / tumor growth,"B16-GM tumors; B16-GM tumor-bearing C57BL/6 mice, inosine 400 mg/kg/day oral day 4 to 21, anti-CTLA4 100 μg + anti-PD-1 200 μg i.p. days 7, 10, 13, 16",reduced tumor size
same,lung metastasis (metastatic nodules),"B16-GM tumors; B16-GM tumor-bearing mice, day 18",significant reduction in lung metastasis

# Reference: patent US10736913B1, “Use of inosine for cancer immunotherapy” (IMMUNOSPARKLE BIOSCIENCE LLC, priority 2019, dated 2020)
